PubChem BioAssay AID1159565 (GlaxoSmithKline (GSK), 2015)
Calls of active or inactive are those of the source. No rule for the calls is given here.

Tested on: T. cruzi-infected H9C2 cardiomyocytes, high-content imaging
Assay: intracellular T. cruzi amastigote inhibition, imaging, H9C2 host cardiomyocytes, host toxicity (AID 1159565);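 also: infected cells incubated 72 h after plating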
[1] = measured here: H9C2 host cell toxicity
[2] = measured here: amastigotes per cell

Compound	IC50	IC50 [1] [µM]	IC50 [2] [µM]
O=C(c1ccc(OCCCc2cnc[nH]2)cc1)C1CC1	1.6 µM	> 50	1.3
Cc1ccccc1OCC(=O)N1CCCN(c2cccnn2)CC1	0.63 µM	> 50	0.5
Cc1cn[nH]c1C1CCCN(Cc2nc3ccccc3n2C)C1 (stereo not given)	20 µM	> 50	10
N#Cc1ccc(S(=O)(=O)N2CCC3(CCN(c4ccccc4)C3=O)CC2)cc1	1 µM	> 50	0.63
Cc1cccc(NS(=O)(=O)c2ccc3c(c2)C(=O)c2cc(S(=O)(=O)Nc4cccc(C)c4C)ccc2-3)c1C	0.4 µM	32	0.4
O=C(NCC(c1cccnc1)N1CCc2ccccc2C1)C(=O)Nc1cccc(Cl)c1 (stereo not given)	0.079 µM	25	0.063
O=C(Cc1ccccc1)Nc1[nH]nc2sc(C(=O)NC3CCCC3)cc12	13 µM	1.3	6.3
O=C(Cc1ccccc1)Nc1ccccc1C(=O)Nc1nccs1	> 50 µM (inactive)	> 50	> 50
CCN(CC)c1nc(Nc2ccncc2)nc2ccccc12	0.079 µM	7.9	0.005
CCCc1nc2nc(N)nc(N)c2cc1CC	0.32 µM	13	0.079
COCCn1c(-c2ccccc2)cnc1NCc1ccccc1OC	16 µM	> 50	6.3
Cc1cc(Nc2ccc(C#N)c(Cl)c2C)n[nH]1	> 50 µM (inactive)	> 50	20
CC(Cn1ccnc1)NC(=O)COc1ccc(Cl)c(Cl)c1 (stereo not given)	0.5 µM	> 50	0.4
CCc1cccc(CC)c1-n1c(SCC(=O)NC(=O)NCc2ccco2)nnc1-c1cccnc1	13 µM	> 50	7.9
CCc1c(C)nc(-n2nc(C)cc2NC(=O)COc2ccccc2F)[nH]c1=O	0.63 µM	2.5	0.16
Cc1nn(-c2nc(N)nc(-c3ccccn3)n2)c(C)c1Cc1ccccc1	3.2 µM	20	2
O=C(NCC(c1cccs1)N1CCOCC1)c1ccc([N+](=O)[O-])o1 (stereo not given)	16 µM	5	16
CCc1cc(C(=O)Nc2nccn2-c2ccccc2)cs1	5 µM	20	3.2

Compound	IC50	IC50 [1] [µM]	IC50 [2] [µM]
COc1cc(Nc2nccc(Nc3onc(C)c3C)n2)cc(S(=O)(=O)C2CCOCC2)c1	25 µM	10	13
Cc1nc2c(-c3n[nH]c(-c4ccccc4N)n3)cccn2c1C	2.5 µM	5	1.6
Oc1cccnc1-c1n[nH]c(Cc2ccccc2)n1	7.9 µM	16	6.3
CC(C)(C)C(O)(CCc1ccc(Cl)cc1)Cn1cncn1 (stereo not given)	0.25 µM	> 50	0.2
Cc1[nH]n2c(=O)c3c(nc2c1-c1ccc(Cl)cc1)CCCC3	1 µM	> 50	0.25
Cc1occc1C(=O)Nc1ccccc1C(=O)Nc1nccs1	> 50 µM (inactive)	> 50	32
CCc1cccc(CC)c1-n1c(SCC(=O)N2CC(=O)Nc3ccccc32)nnc1-c1cccnc1	32 µM	> 50	25
CN(Cc1nnnn1C1CCN(Cc2ccc(-n3ccnc3)cc2)CC1)c1ccc(F)cc1F	0.32 µM	> 50	0.32
O=C(CN(Cc1ccccn1)Cc1ccccn1)NC1Cc2ccccc2C1	13 µM	> 79	6.3
CN(Cc1nc2ccc(C(=O)NCC3CCCCC3)cc2[nH]1)C1CCCc2cccnc21 (stereo not given)	0.63 µM	5	0.32
O=c1[nH]c(C=Cc2cccc(OCCOc3ccccc3)c2)nc(O)c1[N+](=O)[O-]	0.2 µM	> 50	0.16
Clc1ccc(C(CC2CCCCO2)Cn2cncn2)c(Cl)c1 (stereo not given)	1.3 µM	> 50	1
NS(=O)(=O)c1ccc(CNC(=O)c2ccc([N+](=O)[O-])s2)cc1	5 µM	20	0.79
O=C(CN1CCC2(O)CCCCC2C1c1ccc2c(c1)OCO2)Nc1ccc(Cl)cc1Cl (stereo not given)	5 µM	> 50	3.2
Cc1ccccc1NS(=O)(=O)c1ccc2[nH]cc(C(=O)NC3CCCC3)c(=O)c2c1	32 µM	20	25
Cc1ccc2sc(NC(=O)Cn3cnc([N+](=O)[O-])n3)nc2c1	4 µM	> 50	0.5
O=c1cc(CSc2ccc(Cl)cc2)nc(-c2ccccn2)[nH]1	1.6 µM	3.2	0.79
